Source: paper PMC12169669, “Regio- and Stereoselective Synthesis of Nitro-fatty Acids as NRF2 Pathway Activators Working under Ambient or Hypoxic Conditions” (Journal of Medicinal Chemistry, 2025)

Assays:
[1] = tested on: Hmox1; assay: Relative gene expression of Hmox1 in BMCs (qRT-PCR); type: cell-based, mouse; details: 2 μM, 4 h; for Hmox1 relative expression: 4% and 1% oxygen
Text: (§1) Primary bone marrow cells (BMCs) were isolated from 8–12-week-old male C57BL/6 mice (25–30 g, AnLab, Czech Republic). Mice were housed under standard conditions. BMCs were isolated as follows: The day before isolation, phosphate-buffered saline (PBS), ACK Lysis Buffer (A10492-01, Thermo Fisher Scientific), and Iscove’s Modified Dulbecco’s Medium (IMDM) (12440-053, Thermo Fisher Scientific) were placed in a hypoxic chamber (InvivO2 400, Baker Ruskinn, UK) with adjustable oxygen control to equilibrate for the target oxygen concentrations. On the day of the experiment, animals were euthanized using ketamine/xylazine, and bilateral femurs were extracted. BMCs were flushed with hypoxic (1% O2 unless stated otherwise) PBS supplemented with 2% fetal bovine serum (FBS; low endotoxin, FB-1101/500, Biosera, France). After hemolysis at room temperature using hypoxic ACK Lysis Buffer, nucleated BMCs were washed with hypoxic PBS + 2% FBS and counted using a TC20 automated cell counter (Bio-Rad). Cells were kept under hypoxic conditions prior to treatment. The medium for BMC culture, consisting of IMDM with 2% FBS and 1% penicillin/streptomycin (LM-A4118/100, Biosera, France), was supplemented with 10 ng/mL mouse IL-3, 10 ng/mL mouse IL-6, and 50 ng/mL mouse stem cell factor - SCF (213-13, 216-16, and 250-03, respectively; all from PeproTech). Cells were cultured at 37 °C in a humidified atmosphere containing 5% CO2 and the specified oxygen concentrations (21%, 4%, or 1%).
For the relative gene expression of nuclear factor erythroid 2-related factor 2 (NRF2, encoded by Nfe2l2), heme oxygenase-1 (Hmox1), and Glutamate-Cysteine Ligase Modifier Subunit (Gclm) (Mm00477784_m1, Mm00516005_m1, Mm00514996_m1, all from Thermo Fisher Scientific), mouse BMC (3 × 10^6 cells) were cultivated on a 6-well plate in 1.5 mL of complete media (see Isolation and culture of primary cells), and then incubated with 2 μM NO2FAs or control (medium only) for 4 h at the specified oxygen levels (21%, 4%, or 1%). Then, the adherent and nonadherent cells were washed with PBS and lysed using a NucleoSpin RNA Plus kit (740984, Machery-Nagel; Germany). The concentration and purity of isolated RNA was assessed using an Infinite M200 Pro spectrophotometer (Tecan, Austria). Total RNA (0.2 μg) was reversely transcribed into first strand cDNA using a RevertAid First Strand cDNA Synthesis kit according to the manufacturer’s protocol (K1622, Thermo Fisher Scientific). qRT-PCR reactions were performed in a LightCycler480 instrument (Roche; Switzerland) using TaqMan FastAdvanced Master Mix for qPCR (4444557, Thermo Fisher Scientific) and the following program was used: uracil-N-glycosylase activation step at 50 °C for 2 min, an initial denaturation step at 95 °C for 2 min, followed by 45 cycles (95 °C for 3 s, 60 °C for 30 s), and a final cooling step at 40 °C for 1 min. Data were normalized to ribosomal protein L32 (Rpl32, Mm02528467_g1, Thermo Fisher Scientific) and presented as 2^–Δcq.
3 Expression of NRF2 and its target genes in response to NO2FA derivatives. BMCs were cultured under 4% or 1% oxygen conditions and treated for 4 h with the tested NO 2 FAs (2 μM) or medium followed by quantification of (A) Nfe2l2, (B) Hmox1, and (C) Gclm with PCR. Results are presented as relative expression across different oxygen culture conditions. Dimethyl fumarate (DMF) was added as a control. Data are expressed as mean ± SD from 3 to 7 independent experiments (n = 3–7), analyzed with one-way ANOVA with Dunnett’s multiple comparisons test compared to the controls (*p < 0.05; **p < 0.01; ***p < 0.001).
Relative expression of (A) Hmox1 and (B) Gclm in different oxygen […]
Figure S 2. Relative expression of (A) Hmox1 and (B) Gclm in different oxygen conditions. BMCs were cultured under varying oxygen conditions (21, 4, and 1%) and treated for 4 hours with the tested 10 -NO₂OA (2 µM) or medium followed by quantification […]
with PCR. […]

[2] = tested on: Gclm; assay: GCLM protein level in BMCs (Western blot); type: cell-based, mouse; details: 2 μM, 7 h
Text: as §1
Briefly, 1.5 × 10^6 BMCs were placed in 0.2 mL of complete medium in 1.5 mL microtubes and incubated with 2 μM NO2FAs or the control (medium only) for 1 (NRF2), 4 (heme oxygenase-1, HO-1), or 7 (glutamate-cysteine ligase modifier subunit, GCLM) hours at the specified oxygen levels (21%, 4%, or 1%). Cells were then spun down and washed with PBS (from this step onward, cells were processed under atmospheric conditions). Next, cells were lysed in 60 μL RIPA buffer (89901, Thermo Fisher Scientific) containing protease and phosphatase inhibitors cocktail (78442, Thermo Fisher Scientific). Cell lysates were sonicated and centrifuged at 15,000g for 3 min at 4 °C, and 15 μL of lane marker (3900, Thermo Fisher Scientific) was added to the supernatants. Samples were boiled for 3 min at 95 °C. Equal volumes of lysates (15–45 μL/well) were loaded onto 7–15% SDS-polyacrylamide gels. Proteins were then transferred onto PVDF membranes (IPVH85R, EMD Millipore Corp.) and blocked with 5% nonfat dry milk in TBST. Membranes were incubated overnight at 4 °C with the following primary antibodies: anti-β-actin (1:1000; #3700, Cell Signaling Technology), antivinculin (1:10,000; #SAV9264, Sigma-Aldrich), anti-NRF2 (1:500; A308758, Lot 38410, Antibodies.com, UK), anti-HO-1 (1:1000; #43966, Cell Signaling Technology), antihistone H3 (1:2000; #4499, Cell Signaling Technology), or anti-GCLM (1:100; sc-55586, Santa Cruz Biotechnology). This was followed by incubation with corresponding HRP-linked secondary antibodies (antimouse IgG, #7076, 1:1000–5000; or antirabbit IgG, #7074, 1:1000–2000; both from Cell Signaling Technology) for 1 h at room temperature. Protein bands were visualized using an enhanced chemiluminescent substrate (SuperSignal 34577/34095, Thermo Fisher Scientific). The optical densities of detected proteins were measured using ImageJ v1.52 (NIH).
4 Expression of NRF2-target proteins HO-1 and GCLM. NO 2 FA derivatives upregulate the expression of NRF2-target proteins in mouse BMCs. BMCs were cultured under 21% or 1% oxygen conditions and treated with 2 μM of the tested NO 2 FAs for 4 h (A, B) or 7 h (C, D). HO-1 (A, B) and GCLM (C, D) expression in whole-cell lysates was subsequently analyzed. Results are presented as the fold change relative to control cells across different oxygen culture conditions. Data are expressed as mean ± SD from 3–5 independent experiments (n = 3–5). […]

SMILES | Hmox1 relative expression [1] | GCLM protein level, fold change relative to control ([2]; 1% oxygen) | GCLM protein level, fold change relative to control ([2]; 21% oxygen) | Hmox1 expression at 1% oxygen compared to 21% ([1]; 1% vs 21% oxygen)
CCCCCCCC/C=C(\CCCCCCCC(=O)O)[N+](=O)[O-] [9-NO2OA, (9E)-9-Nitro-oleic Acid] | significant upregulation | nearly the same increase | nearly the same increase | 
CCCCCC/C=C/C=C(\CCCCCCCC(=O)O)[N+](=O)[O-] [9-NO2cLA, (9E,11E)-9-Nitro Conjugated Linoleic Acid] | upregulation that was dependent on oxygen levels |  |  | 
CCCCC/C=C\C/C(=C\CCCCCCCC(=O)O)[N+](=O)[O-] [10-NO2LA, (9E,12Z)-10-Nitro Linoleic Acid] | upregulation that was dependent on oxygen levels or specific target genes |  | only significant at 21% oxygen | 
CCCCCCCC/C(=C\CCCCCCCC(=O)O)[N+](=O)[O-] [10-NO2OA, (9E)-10-Nitro-oleic Acid] | significant upregulation | nearly the same increase | nearly the same increase | significantly upregulated
CCCCCCCCC(CCCCCCCCC(=O)O)[N+](=O)[O-] (stereo not shown) [10-NO2SA, 10-Nitro Stearic acid] | no effects | no significant effects | no significant effects | 
